In the NIST ThermoML archive (doi:10.1021/acs.jced.8b00499):
Numbers after ± are expanded uncertainties.

Legend:
[1] = Liquid; for vapor or sublimation pressure: Ebulliometric method (Recirculating still); for viscosity / mass density: 298.15 K, 101.33 kPa; for viscosity: Capillary tube (Ostwald / Ubbelohde) method; for mass density: Pycnometric method
[2] = refractive index (Na D-line) (dimensionless); conditions: 298.15 K; 101.33 kPa; Liquid; Standard Abbe refractometry

CO [methanol]
Conditions	vapor or sublimation pressure [kPa]
[1], 337.83 K	101.3 ± 1.1

CCC(C)OCOC (stereo unspecified) [2-(methoxymethoxy)butane]
Conditions	mass density [kg/m3]	refractive index	viscosity [mPa·s]
[1]	836.4 ± 1	–	0.561 ± 0.014
[2]	–	1.3833 ± 0.0006	–

[1]
Conditions	vapor or sublimation pressure [kPa]
346.4 K	31.5 ± 1
349.99 K	36.4 ± 1
356.07 K	44.4 ± 1
359.47 K	49.6 ± 1
363.89 K	57.2 ± 1
367.43 K	65.1 ± 1
372.48 K	75.7 ± 1
376.45 K	85.1 ± 1
379.35 K	92 ± 1
382.8 K	101.3 ± 1
385.21 K	109.1 ± 1
388.5 K	119 ± 1
391.24 K	127.9 ± 1.1

CCC(C)O (stereo unspecified) [butan-2-ol]
Conditions	mass density [kg/m3]	refractive index	viscosity [mPa·s]
[1]	802.6 ± 0.9	–	3.099 ± 0.09
[2]	–	1.395 ± 0.0006	–

[1]
Conditions	vapor or sublimation pressure [kPa]
344.47 K	31.5 ± 1
351.27 K	42.8 ± 1
356.45 K	53.5 ± 1
363.21 K	70.7 ± 1
366.85 K	81.2 ± 1
369.83 K	91.3 ± 1.1
372.7 K	101.3 ± 1.1

CCCCO [butan-1-ol]
Conditions	mass density [kg/m3]	refractive index	viscosity [mPa·s]
[1]	806 ± 0.9	–	2.534 ± 0.072
[2]	–	1.3972 ± 0.0006	–

Conditions	vapor or sublimation pressure [kPa]
[1], 390.9 K	101.3 ± 1.1
